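Where inhibition never reached the appropriate level, the endpoint shown equals the highest concentration tested. Otherwise, values were interpolated linearly from a five-concentration, 48-hour dose response in 96-well plates. Here, GI50 denotes the concentration required for 50% inhibition of growth. TGI: concentration producing complete growth inhibition.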
Assays:
Assay in all cases: DTP human tumour cell line panel, 48 h
UACC-257 melanoma = system: UACC-257 melanoma
HCC-2998 colon = system: HCC-2998 colon
SK-OV-3 ovarian = system: SK-OV-3 ovarian
SN12C renal = system: SN12C renal
RXF 393 renal = system: RXF 393 renal
SF-539 CNS = system: SF-539 CNS
MDA-N = system: MDA-N
NCI-H226 lung = system: NCI-H226 lung
SNB-19 CNS = system: SNB-19 CNS
SNB-75 CNS = system: SNB-75 CNS
LOX IMVI melanoma = system: LOX IMVI melanoma

SMILES | TGI (UACC-257 melanoma) | TGI (HCC-2998 colon) | TGI (SK-OV-3 ovarian) | TGI (SN12C renal) | TGI (RXF 393 renal) | TGI (SF-539 CNS) | TGI (MDA-N) | TGI (NCI-H226 lung) | TGI (SNB-19 CNS) | TGI (SNB-75 CNS) | TGI (LOX IMVI melanoma) | GI50 (UACC-257 melanoma) | GI50 (SNB-75 CNS) | GI50 (HCC-2998 colon) | GI50 (SK-OV-3 ovarian) | GI50 (SN12C renal) | GI50 (LOX IMVI melanoma) | GI50 (RXF 393 renal) | GI50 (SF-539 CNS) | GI50 (NCI-H226 lung)
Oc1ccccc1/C=N/N1C(=S)N(C23CC4CC(CC(C4)C2)C3)C(=Nc2ccccc2)C1=Nc1ccccc1 | > 100 µM | > 100 µM | > 100 µM | > 100 µM | > 100 µM | > 100 µM | > 100 µM | > 100 µM | > 100 µM |  |  |  |  |  |  |  |  |  |  | 
C=C1[C@@H]2CCC3[C@]4(C)C(CC[C@@]5(C)C(=O)O[C@H](O)[C@@H]45)[C@H](O)[C@]3(C2)[C@H]1OC1OC(CO)C(O)C(O)C1O (some centres undefined) | > 50 µM |  | > 50 µM | > 50 µM | > 50 µM | > 50 µM | > 50 µM | > 50 µM | > 50 µM | > 50 µM | > 50 µM |  |  |  |  |  |  |  |  | 
c1cncc(CSc2nc3ccccc3nc2-c2cccs2)c1 | > 100 µM | > 100 µM |  | > 100 µM |  | > 100 µM |  | > 100 µM | > 100 µM | > 100 µM | > 100 µM |  |  |  |  |  |  |  |  | 
Cc1cc(-c2ccccc2)nc2oc(=O)n(C)c12 | > 100 µM | > 100 µM | > 100 µM | > 100 µM | > 100 µM |  | > 100 µM | > 100 µM | > 100 µM |  | > 100 µM |  |  |  |  |  |  |  |  | 
CCOC(=O)c1c(SCc2cc(=O)[nH]c(=O)[nH]2)n(-c2ccccc2)c(=S)n(-c2ccccc2)c1=O | > 100 µM | > 100 µM |  | > 100 µM | > 100 µM | > 100 µM | > 100 µM |  | > 100 µM | > 100 µM |  |  |  |  |  |  |  |  |  | 
NC(=O)C1CCN(Cc2c(Cl)c(Cl)c(CN3CCC(C(N)=O)CC3)c(Cl)c2Cl)CC1 | > 100 µM | > 100 µM | 46.5 µM | > 100 µM | > 100 µM | 70.7 µM |  | > 100 µM | > 100 µM | 63.6 µM | > 100 µM |  |  |  |  |  |  |  |  | 
C=CN(C=C)C(=O)Cn1cc(-c2ccccc2)nn1 | > 100 µM | > 100 µM |  | > 100 µM |  | > 100 µM |  |  | > 100 µM | > 100 µM | > 100 µM |  |  |  |  |  |  |  |  | 
O=C(c1ccc([N+](=O)[O-])cc1)N1CCCC1 | > 100 µM | > 100 µM |  | > 100 µM | > 100 µM | > 100 µM | > 100 µM | > 100 µM | > 100 µM | > 100 µM | > 100 µM |  |  |  |  |  |  |  |  | 
CC1(C)OCC(C2OC(C)(C)OC2[C@H]2O[C@@]3(O)[C@H]4[C@H](C=CC[C@@H]42)[C@@H](OCc2ccccc2)[C@H](OCc2ccccc2)[C@H]3OCc2ccccc2)O1 (some centres undefined) | > 100 µM |  | > 100 µM | > 100 µM | 82.1 µM | > 100 µM | 44.8 µM | > 100 µM | > 100 µM | > 100 µM | > 100 µM |  |  |  |  |  |  |  |  | 
N#C/C(C(=O)NCc1ccccc1)=C(/N)N1CCCC1 | > 100 µM | > 100 µM | > 100 µM | > 100 µM | > 100 µM | > 100 µM | > 100 µM | > 100 µM | > 100 µM |  | > 100 µM |  |  |  |  |  |  |  |  | 
N#Cc1c(-c2ccc([N+](=O)[O-])cc2)c(C#N)c(=O)n(NS(=O)(=O)c2ccccc2)c1O | > 100 µM | > 100 µM | > 100 µM | > 100 µM | > 100 µM | > 100 µM | > 100 µM | > 100 µM | 35.5 µM |  | > 100 µM |  |  |  |  |  |  |  |  | 
C/C(=C\CSCC(N)C(=O)O)CC/C=C(\C)CNc1ccccc1 (centres undefined) | > 100 µM | > 100 µM | > 100 µM | > 100 µM | > 100 µM | > 100 µM |  | > 100 µM | > 100 µM | > 100 µM | > 100 µM |  |  |  |  |  |  |  |  | 
CCN(CC)CCCCNc1c2ccc(Cl)cc2nc2ccc(OC)cc12 | 3.91 µM | 2.32 µM | 3.46 µM | 2.61 µM | 1.78 µM | 2.73 µM |  | 3.35 µM |  | 2.39 µM | 0.583 µM | 1.8 µM | 1.09 µM | 0.78 µM | 0.637 µM | 0.438 µM | 0.213 µM | 0.381 µM | 1.19 µM | 1.32 µM
CCCCNC(=O)Cn1c2ccc(Br)cc2c2nc3ccccc3nc21 | > 100 µM |  |  | > 100 µM | > 100 µM |  | > 100 µM | > 100 µM | > 100 µM | > 100 µM | > 100 µM |  |  |  |  |  |  |  |  | 
COc1cc2c(c(OC)c1)[C@H](C)N(Cc1ccccc1)C(C)C2 (some centres undefined) | > 100 µM | > 100 µM | > 100 µM | > 100 µM |  | 48.4 µM |  | 84.6 µM | > 100 µM | > 100 µM | > 100 µM |  |  |  |  |  |  |  |  | 
CN1C2=Nc3n(c4ccccc4[n+]3C)CN2c2ccccc21 | > 100 µM |  | > 100 µM | 93.7 µM |  | > 100 µM | 50.5 µM |  | > 100 µM |  |  |  |  |  |  |  |  |  |  | 
O=C1c2cc3c(cc2-c2c1c1ccc(Cl)cc1c(=O)n2CCCn1ccnc1)OCO3 | > 100 µM | > 100 µM | 26.6 µM | > 100 µM | 0.0518 µM | 0.0649 µM |  | > 100 µM |  | 4.14 µM | 0.0297 µM | 0.0584 µM | 0.0107 µM | 0.0737 µM | < 0.01 µM | < 0.01 µM | < 0.01 µM | < 0.01 µM | < 0.01 µM | 0.0186 µM
CSc1ccc(/C=C2\N=C(c3ccccc3)N(c3nc4cc(Cl)c(F)cc4s3)C2=O)cc1 | > 100 µM | > 100 µM | > 100 µM | > 100 µM | 57.5 µM | 82.6 µM | > 100 µM |  | 76.6 µM | 66.6 µM | 55.6 µM |  |  |  |  |  |  |  |  | 
CC(C)(C)/C(O)=C\c1nc2cc(F)c(F)cc2[nH]c1=O | > 100 µM | > 100 µM | > 100 µM |  | > 100 µM | > 100 µM |  | > 100 µM | > 100 µM | > 100 µM | > 100 µM |  |  |  |  |  |  |  |  | 
O=c1c2ccc(Cl)cc2oc2c(CNc3ccc(S(=O)(=O)Nc4ncccn4)cc3)cccc12 | > 100 µM | > 100 µM | > 100 µM | > 100 µM |  | > 100 µM | > 100 µM | > 100 µM | > 100 µM | > 100 µM | > 100 µM |  |  |  |  |  |  |  |  | 
